Data set [1] concerns Ctenocephalides felis. Nature of the data set: Ctenocephalides felis in vitro contact test. The settings on record: application rate 5 μg/cm^2; adult cat fleas; after 48 h. The data set is classed as in vivo. The procedure: Ctenocephalides felis—In Vitro Contact Test
(§1) For the coating of the test tubes, 9 mg of active compound are first dissolved in 1 ml of acetone p.a. and then diluted to the desired concentration with acetone p.a. 250 μl of the solution are distributed homogeneously on the inner walls and the base of a 25 ml test tube by turning and rocking on an orbital shaker (rocking rotation at 30 rpm for 2 h). With 900 ppm active compound solution and internal surface 44.7 cm^2, given homogeneous distribution, an area-based dose of 5 μg/cm^2 is achieved.
After the solvent has evaporated off, the tubes are populated with 5-10 adult cat fleas (Ctenocephalides felis), sealed with a perforated plastic lid and incubated in a horizontal position at room temperature and ambient humidity. After 48 h, efficacy is determined. To this end, the test tubes are stood upright and the fleas are knocked to the base of the tube. Fleas which remain motionless at the base or move in an uncoordinated manner are considered to be dead or moribund.
100% efficacy means that all the fleas were dead or moribund. 0% efficacy means that no fleas were harmed.

Data set [2] in a line: log P by HPLC on reversed-phase column (C18), EEC Directive 79/831 Annex V.A8. The settings on record: reversed-phase C18 HPLC column; HPLC, C18, acetonitrile/water with formic acid gradient; read-out: log P. It is filed as physicochemical. The procedure:
^a) Unless indicated otherwise, the following method was used to determine the log P values and masses: The determination of the given log P values was carried out in accordance with EEC Directive 79/831 Annex V.A8 by HPLC (High Performance Liquid Chromatography) on a reversed-phase column (C18). Agilent 1100 LC system; 50*4.6 Zorbax Eclipse Plus C18 1.8 micron; mobile phase A: acetonitrile (0.1% formic acid); mobile phase B: water (0.09% formic acid); linear gradient from 10% acetonitrile to 95% acetonitrile in 4.25 min, then 95% acetonitrile for a further 1.25 min; oven temperature 55° C.; flow rate: 2.0 ml/min. Mass detection is effected by means of an Agilend MSD system.

The subject of data set [3] is Boophilus microplus. Nature of the data set: Boophilus microplus injection test (BOOPMI Inj). Conditions: application rate 20 μg/animal; injection into abdomen. It is filed as in vivo. The procedure: Boophilus microplus—Injection Test (BOOPMI Inj) Solvent: dimethyl sulphoxide
To produce a suitable preparation of active compound, 10 mg of active compound are mixed with 0.5 ml of solvent and the concentrate is diluted with solvent to the desired concentration.
1 μl of the active compound solution is injected into the abdomen of 5 engorged adult female cattle ticks (Boophilus microplus). The animals are transferred into dishes and kept in a climate-controlled room.
The activity is assessed after the desired time by laying of fertile eggs. Eggs which are not visibly fertile are stored in a climate-controlled cabinet until the larvae hatch after about 42 days. An efficacy of 100% means that none of the ticks has laid any fertile eggs; 0% means that all the eggs are fertile.

The subject of data set [4] is Lucilia cuprina. Nature of the data set: Lucilia cuprina test (LUCICU). It is filed as in vivo. Conditions: application rate 100 ppm; L1 larvae; after 2 days. The procedure:
Lucilia cuprina-Test (LUCICU) Solvent: dimethyl sulphoxide
(§2) To produce a suitable preparation of active compound, 10 mg of active compound are mixed with 0.5 ml of dimethyl sulphoxide, and the concentrate is diluted with water to the desired concentration.
About 20 L1 larvae of the Australian sheep blowfly (Lucilia cuprina) are transferred into a test vessel containing minced horsemeat and the active compound preparation of the desired concentration.
After 2 days, the kill in % is determined. 100% means that all the larvae have been killed; 0% means that no larvae have been killed.

Data set [5] has as its system Phaedon cochleariae. Nature of the data set: Phaedon cochleariae spray test (PHAECO). The data set is classed as in vivo. Conditions: application rate 100 g/ha; Chinese cabbage leaf discs; after 7 days. The procedure:
Phaedon cochleariae—Spray Test (PHAECO) Solvent: 78.0 parts by weight of acetone • • 1.5 parts by weight of dimethylformamide Emulsifier: alkylaryl polyglycol ether
(§3) To produce a suitable preparation of active compound, 1 part by weight of active compound is dissolved using the specified parts by weight of solvent and made up with water containing an emulsifier concentration of 1000 ppm until the desired concentration is attained. To produce further test concentrations, the preparation is diluted with emulsifier-containing water.
After 7 days, efficacy in % is determined. 100% means that all the beetle larvae have been killed; 0% means that no beetle larvae have been killed.

The subject of data set [6] is Rhipicephalus sanguineus. Nature of the data set: Rhipicephalus sanguineus in vitro contact test. It is filed as in vivo. Conditions: application rate 5 μg/cm^2; adult dog ticks; after 48 h. On the procedure:
Rhipicephalus sanguineus—In Vitro Contact Tests
as §1
After the solvent has evaporated off, the tubes are populated with 5-10 adult dog ticks (Rhipicephalus sanguineus), sealed with a perforated plastic lid and incubated in a horizontal position in the dark at room temperature and ambient humidity. After 48 h, efficacy is determined. To this end, the ticks are knocked to the floor of the tube and incubated on a hotplate at 45-50° C. for not more than 5 min. Ticks which remain motionless on the floor or move in such an uncoordinated manner that they are unable to deliberately avoid the heat by climbing upwards are considered to be dead or moribund.
An efficacy of 100% means that all the ticks were dead or moribund. 0% efficacy means that none of the ticks had been harmed.

Data set [7] relates to Spodoptera frugiperda. Nature of the data set: Spodoptera frugiperda spray test (SPODFR). The data set is classed as in vivo. The settings on record: application rate 100 g/ha; maize leaf discs; after 7 days. The procedure: Spodoptera frugiperda—Spray Test (SPODFR)
Solvent: 78.0 parts by weight of acetone • • 1.5 parts by weight of dimethylformamide Emulsifier: alkylaryl polyglycol ether
as §3
Leaf discs of maize (Zea mays) are sprayed with an active compound preparation of the desired concentration and, after drying, populated with caterpillars of the armyworm (Spodoptera frugiperda).
After 7 days, efficacy in % is determined. 100% means that all the caterpillars have been killed; 0% means that no caterpillars have been killed.

Data set [8] concerns Boophilus microplus Parkhurst strain, SP-resistant. Nature of the data set: Boophilus microplus dip test (BOOPMI Dip). It is filed as in vivo. Conditions: application rate 20 ppm; engorged adult female cattle ticks; after 7 days. On the procedure:
Boophilus microplus—Dip Test (BOOPMI Dip) Test animals: cattle ticks (Boophilus microplus) Parkhurst strain, SP-resistant Solvent: dimethyl sulphoxide
10 mg of active compound are dissolved in 0.5 ml of dimethyl sulphoxide. To produce a suitable formulation, the active compound solution is diluted with water to the concentration desired in each case.
This active compound preparation is pipetted into tubes. 8-10 engorged adult female cattle ticks (Boophilus microplus) are transferred into a further tube with holes. The tube is immersed into the active compound preparation, and all the ticks are completely wetted. After the liquid has run out, the ticks are transferred on filter discs into plastic dishes and stored in a climate-controlled room.
Efficacy is assessed after 7 days by laying of fertile eggs. Eggs which are not visibly fertile are stored in a climate-controlled cabinet until the larvae hatch after about 42 days. An efficacy of 100% means that none of the ticks has laid any fertile eggs; 0% means that all the eggs are fertile.

The test system of data set [9] is Ctenocephalides felis. Nature of the data set: Ctenocephalides felis oral test (CTECFE). The settings on record: application rate 100 ppm in citrated cattle blood; after 2 days. It is filed as in vivo. The procedure:
Ctenocephalides felis—Oral Test (CTECFE) Solvent: dimethyl sulphoxide
To produce a suitable preparation of active compound, 10 mg of active compound are mixed with 0.5 ml of dimethyl sulphoxide. Dilution with citrated cattle blood gives the desired concentration.
About 20 unfed adult cat fleas (Ctenocephalides felis) are placed into a chamber which is closed at the top and bottom with gauze. A metal cylinder whose bottom end is closed with parafilm is placed onto the chamber. The cylinder contains the blood/active compound preparation, which can be imbibed by the fleas through the parafilm membrane.
After 2 days, the kill in % is determined. 100% means that all of the fleas have been killed; 0% means that none of the fleas have been killed.

For data set [10], the system named is Musca domestica. Nature of the data set: Musca domestica test (MUSCDO). The data set is classed as in vivo. The settings on record: application rate 100 ppm; adult houseflies; after 2 days. The procedure: Musca domestica-Test (MUSCDO) Solvent: dimethyl sulphoxide
as §2
Vessels containing a sponge treated with sugar solution and the active compound preparation of the desired concentration are populated with 10 adult houseflies (Musca domestica).
After 2 days, the kill in % is determined. 100% means that all of the flies have been killed; 0% means that none of the flies have been killed.

Data set [11] relates to Tetranychus urticae. Nature of the data set: Tetranychus urticae spray test, OP-resistant (TETRUR). It is filed as in vivo. The settings on record: application rate 100 g/ha; bean leaf discs; after 6 days. The procedure: Tetranychus urticae—Spray Test, OP-Resistant (TETRUR) Solvent: 78.0 parts by weight of acetone • • 1.5 parts by weight of dimethylformamide Emulsifier: alkylaryl polyglycol ether
as §3
Discs of bean leaves (Phaseolus vulgaris) infested by all stages of the greenhouse red spider mite (Tetranychus urticae) are sprayed with an active ingredient formulation of the desired concentration.
After 6 days, efficacy in % is determined. 100% means that all the spider mites have been killed; 0% means that no spider mites have been killed.

Data set [12] has as its system Amblyomma hebraeum. Nature of the data set: Amblyomma hebaraeum test (AMBYHE), tick nymph immersion. The data set is classed as in vivo. Conditions: application rate 20 ppm; tick nymphs; after 42 days. The procedure: Amblyomma hebaraeum Test (AMBYHE) Solvent: dimethyl sulphoxide
as §2
Tick nymphs (Amblyomma hebraeum) are placed into perforated plastic beakers and immersed in the desired concentration for one minute. The ticks are transferred on filter paper into a Petri dish and stored in a climate-controlled cabinet.
After 42 days, the kill in % is determined. 100% means that all of the ticks have been killed; 0% means that none of the ticks have been killed.

Data on 1 compound can be found in US20170114021A1, “HALOGEN-SUBSTITUTED COMPOUNDS” (priority 2014, published 2017).

Take `Cn1nc(C(F)(F)C(F)(F)F)c(C(F)(F)F)c1-c1cn(-c2ccc(Cl)c(C(=O)NC3CC3)c2)nn1` [Ig-1, 2-chloro-N-cyclopropyl-5-{4-[1-methyl-3-(pentafluoroethyl)-4-(trifluoromethyl)-1H-pyrazol-5-yl]-1H-1,2,3-triazol-1-yl}benzamide]: the efficacy in [1], in [5], in [6], in data set [7] and in data set [11] was 100% in each case. Also, the chromatographic logP in [2] is 3.67. Also, the “efficacy (laying of fertile eggs)” value in data set [3] and in [8] was 100% in each case. For the same compound, the “efficacy (kill)” value in data set [4], in data set [9], in data set [10] and in data set [12] was 100% throughout.
